# Results published in US7795381B2, “Methods and materials for cancer treatment” (Mayo Foundation for Medical Education and Research, priority 2001, dated 2010).
# Entries after “also recorded” stand apart in the source; their conditions may differ. No end group written: not given here.
# Columns and labels:
# Format in all cases: cell-based, human
# CD4+ T cells (HTL lines) [1] = experiment: T-cell proliferative response to polypeptide, dose curve ([3H]-thymidine); conditions: for polypeptide concentration required to obtain 50% of the maximal proliferation: HLA-DR7-restricted HTL lines, polypeptide presented by autologous PBMC
# Experimental: Polypeptides gp10074-89, gp100175-189 and gp100576-590 were tested for their capacity to stimulate CD4^+ T cells obtained from four healthy, MHC-typed individuals in primary in vitro cultures using polypeptide-pulsed autologous dendritic cells (DC). The method used to generate tumor antigen-reactive HTL lines and clones using polypeptide-stimulated peripheral blood mononuclear cells (PBMC) was recently described in detail (Kobayashi H et al., Cancer Res 60:5228 (2000)). Briefly, DC were generated in tissue culture from adherent monocytes that were cultured for 7 days in the presence of GM-CSF and IL-4. A total of (1×10^4) polypeptide-pulsed DC (10 μg/ml for 2 hr) were irradiated (4,200 rad) and co-cultured with 3×10^4 autologous purified CD4^+ T cells (using magnetic microbeads from Miltenyi Biotech) in each well of a 96-round bottom well culture plate. Seven days later, the cultures were restimulated with polypeptide-pulsed irradiated autologous PBMC and two days later, human rIL-2 was added at a final concentration of 10 IU/ml. After 7 days, the microcultures were tested for their proliferative responses to polypeptide as described below. Those micro-wells showing a proliferative response to polypeptide (at least 2.5 fold over background) were expanded in 24 or 48-well plates by weekly restimulation with polypeptides and irradiated autologous PBMC. In some instances T-cell lines were cloned by limiting dilution and used for further studies. […]
# T cells (3×10^4/well) were mixed with irradiated APC in the presence of various concentrations of antigen (polypeptides, tumors or tumor lysates), in 96-well culture plates. […] The radioactivity incorporated into DNA, which correlates with cell proliferation, was measured in a liquid scintillation counter after harvesting the cell cultures onto glass fiber filters. […] The stimulation index (SI) was calculated by dividing the mean radioactivity (cpm) obtained in the presence of antigen by the mean radioactivity (cpm) obtained in the absence of antigen but in the presence of APC.
# CD4+ T cells (HTL lines) [2] = experiment: MHC restriction analysis of HTL proliferative response (anti-HLA-DR/-DQ blocking, HLA-transfected L-cells, LCL); conditions: for ability to trigger HTL restricted by other alleles such as HLA-DR1 or -DR4: 2 experiments with cells from 2 donors; for MHC restriction of the induced CD4+ T-cell (HTL) proliferative response: anti-DR/anti-DQ antibody blocking, HLA-transfected L-cells, allogeneic LCL
# Experimental: Polypeptides gp10074-89, gp100175-189 and gp100576-590 were tested for their capacity to stimulate CD4^+ T cells obtained from four healthy, MHC-typed individuals in primary in vitro cultures using polypeptide-pulsed autologous dendritic cells (DC). The method used to generate tumor antigen-reactive HTL lines and clones using polypeptide-stimulated peripheral blood mononuclear cells (PBMC) was recently described in detail (Kobayashi H et al., Cancer Res 60:5228 (2000)). Briefly, DC were generated in tissue culture from adherent monocytes that were cultured for 7 days in the presence of GM-CSF and IL-4. A total of (1×10^4) polypeptide-pulsed DC (10 μg/ml for 2 hr) were irradiated (4,200 rad) and co-cultured with 3×10^4 autologous purified CD4^+ T cells (using magnetic microbeads from Miltenyi Biotech) in each well of a 96-round bottom well culture plate. Seven days later, the cultures were restimulated with polypeptide-pulsed irradiated autologous PBMC and two days later, human rIL-2 was added at a final concentration of 10 IU/ml. After 7 days, the microcultures were tested for their proliferative responses to polypeptide as described below. Those micro-wells showing a proliferative response to polypeptide (at least 2.5 fold over background) were expanded in 24 or 48-well plates by weekly restimulation with polypeptides and irradiated autologous PBMC. In some instances T-cell lines were cloned by limiting dilution and used for further studies. Culture medium for all procedures consisted of RPMI-1640 supplemented with 5% human male AB serum, 0.1 mM MEM nonessential amino acids, 1 mM sodium pyruvate, 2 mM L-glutamine, and 50 μg/ml gentamicin.
# T cells (3×10^4/well) were mixed with irradiated APC in the presence of various concentrations of antigen (polypeptides, tumors or tumor lysates), in 96-well culture plates. APC consisted of either PBMC (1×10^5/well), HLA-DR-expressing L-cells (3×10^4/well), EBV-LCL or melanoma tumor cells (3×10^4/well), pretreated with IFN-γ (500 U/ml for 48 h) to enhance MHC expression. Proliferation assays were incubated at 37° C. in a 5% CO2 incubator for 72 h and during the last 16 h, each well was pulsed with 0.5 μCi/well of [^3H]-thymidine (Amersham Pharmacia Biotech, Piscataway, N.J.). […] The radioactivity incorporated into DNA, which correlates with cell proliferation, was measured in a liquid scintillation counter after harvesting the cell cultures onto glass fiber filters. […] The stimulation index (SI) was calculated by dividing the mean radioactivity (cpm) obtained in the presence of antigen by the mean radioactivity (cpm) obtained in the absence of antigen but in the presence of APC.
# [3] = system: melanoma tumor cells or tumor lysates presented by APC; experiment: Recognition of naturally processed antigen by polypeptide-reactive HTL (proliferation, GM-CSF/IFN-γ ELISA); conditions: for HTL recognition of melanoma tumor cell lysates presented by autologous APC / HTL recognition of antigen presented directly by intact melanoma cells: HLA-DR7-restricted HTL lines; for HTL recognition of melanoma tumor cell lysates presented by autologous APC: 697 mel lysate; for HTL recognition of antigen presented directly by intact melanoma cells: HLA-DR7+ melanoma (HT-144); for recognition of naturally processed antigen by HTL reactive to the polypeptide: MHC class II positive melanomas or APC fed with tumor lysates
# Text: Recognition of naturally processed antigen by polypeptide-reactive T-cells can be an important parameter to determine whether a predicted T-cell epitope can be used to elicit an immune response against tumor cells. HTL may recognize polypeptide/MHC class II complexes directly on tumor cells that are MHC class II positive and as a consequence the T-cells will become activated and produce cytokines that provide help to CTL or cytokines that may inhibit tumor cell growth.
# T cells (3×10^4/well) were mixed with irradiated APC in the presence of various concentrations of antigen (polypeptides, tumors or tumor lysates), in 96-well culture plates. APC consisted of either PBMC (1×10^5/well), HLA-DR-expressing L-cells (3×10^4/well), EBV-LCL or melanoma tumor cells (3×10^4/well), pretreated with IFN-γ (500 U/ml for 48 h) to enhance MHC expression. Proliferation assays were incubated at 37° C. in a 5% CO2 incubator for 72 h and during the last 16 h, each well was pulsed with 0.5 μCi/well of [^3H]-thymidine (Amersham Pharmacia Biotech, Piscataway, N.J.). In some cases, culture supernatants were collected before the addition of [^3H]-thymidine for the determination of lymphokine production using ELISA kits (Pharmingen, San Diego, Calif.). The radioactivity incorporated into DNA, which correlates with cell proliferation, was measured in a liquid scintillation counter after harvesting the cell cultures onto glass fiber filters. […] The stimulation index (SI) was calculated by dividing the mean radioactivity (cpm) obtained in the presence of antigen by the mean radioactivity (cpm) obtained in the absence of antigen but in the presence of APC.
# melanoma cells = experiment: Antigen-specific cytotoxicity, JAM assay; conditions: HLA-DQw6-restricted HTL; DQw6 positive melanoma cell line (1102 mel)
# Experimental: The capacity of HTL lines and clones to kill tumor cells expressing the appropriate polypeptide/MHC complexes was evaluated using the JAM assay (Matzinger P, J Immunol Methods 145:185 (1991)), which measures the DNA retained by target living cells after incubation with effector T-cells. Briefly, target cells were labeled with of [^3H]-thymidine for 18 hrs in tissue culture. After washing and counting the cells, they were incubated at various effectors to target ratio in 96-well round-bottomed plates for 36 hours. The cultures were then harvested onto glass fiber filters, and the amount of radioactivity retained in DNA is measured in a scintillation counter. The percent cytotoxicity was calculated by the ratio of cpm obtained in the absence of T-cells over the cpm obtained in the presence of different amounts of T-cells X 100. All determinations were done in triplicates.
# [4] = system: PBMC from normal individuals; experiment: In vitro immunization of PBMC using polypeptide-pulsed DC (CTL induction)
# Text: See, Manici et al., J Exp Med 189:871 (1999); Fujita et al., Eur J Immunol 28:305 (1998); Zarour et al., Cancer Res 60:4946 (2000); Touloukian et al., J Immunol 164:3535 (2000); Zarour et al., Proc Natl Acad Sci USA 97:400 (2000); Yasukawa et al., Blood 92:3355 (1998).
Substance,polypeptide concentration required to obtain 50% of the maximal proliferation (CD4+ T cells (HTL lines) [1]) [µg/mL],ability to trigger HTL restricted by other alleles such as HLA-DR1 or -DR4 (CD4+ T cells (HTL lines) [2]),MHC restriction of the induced CD4+ T-cell (HTL) proliferative response (CD4+ T cells (HTL lines) [2]),HTL recognition of melanoma tumor cell lysates presented by autologous APC [3],HTL recognition of antigen presented directly by intact melanoma cells [3],recognition of naturally processed antigen by HTL reactive to the polypeptide [3],cytotoxicity of polypeptide-reactive HTL (melanoma cells),"affinity of T-cell response, higher than the response to polypeptide gp10074-89 (CD4+ T cells (HTL lines) [1]; by amount of polypeptide required to achieve 50% of maximal proliferative response) [fold]",induction of anti-tumor CTL responses [4]
GPTLIGANASFSIALN [gp10074-89],~0.6,not able to trigger,restricted by the HLA-DR7 allele,efficient at recognizing tumor cell lysates,effective in recognizing antigen,can recognize naturally processed antigen; also recorded: capable of recognizing naturally processed antigen,–,–,–
"GRAMLGTHTMEVTVY [gp100175-189, GRAMLGTHTMEVTVY]",–,–,–,–,–,–,high levels of cytotoxicity,–,–
SLAVVSTQLIMPGQE [gp100576-590],~0.04,not able to trigger,restricted by the HLA-DR7 allele,could not be detected,could not be detected,did not proliferate or produce lymphokines,–,~15,–
"gp100177-186: potent HLA-A2-restricted CTL epitope included in polypeptide gp100175-189 (AMLGTHTMEV; UniProt P40967 177-186, looked up, fragment)",–,–,–,–,–,–,–,–,very effective in inducing anti-tumor CTL responses
